Results reported in US20110046070A1, “GENE EXPRESSION INHIBITOR SELECTIVE FOR MATRIX METALLOPROTEINASE-9 GENE” (priority 2008, published 2011).

Tests used:
[1] = test system: binding of NF-κβ protein with the MMP-9 promoter region; test: Immunoprecipitation/PCR assay with anti-NF-κβ antibodies; assay type: cell-based, human; settings: 1 μM, 4 hours, MDA-MB-231 and HeLa cells
Method: Immunoprecipitation/PCR assay with anti-NF-κβ antibodies was conducted using MDA-MB-231 and HeLa cells. The MDA-MB-231 and HeLa cells were separately inoculated to a 100-mm culture dish and cultured for 24 hours in […] of Dulbecco's modified Eagle medium (DMEM) containing 10% fetal bovine serum (Invitrogen) and then with 1 μM match polyamide HMMP9NFκβ or 1 μM mismatch polyamide (shown in FIG. 26) for 4 hours. Protein-DNA complexes were fixed in 1% formaldehyde, reacted with specific NF-κB p65 antibodies and nonspecific rabbit immunoglobulin G antibodies, and collected by precipitation as antibody-protein-DNA complexes using Protein A beads. From the protein-DNA complexes, DNA was separated through reaction with 5 M NaCl and subjected to amplification reaction using PCR primers flanking the NFκβ binding sequence of MMP9. The NFκβ-bound DNA of an MMP9 gene promoter region is identified as a PCR product.
An MMP-9 promoter region from −657 to −484 was amplified using PCR primers (forward: 5′-TGTCCCTTTACTGCCCTGA-3′ (SEQ ID NO: 20) and reverse: 5′-[…]-3′ (SEQ ID NO: 21)) (Schwingshackl A, Duszyk M, Brown N, Moqbel R. HμMan eosinophils release matrix metalloproteinase-9 on stimulation with TNF-α. J Allergy Clin Immunol 104: 983-989, 1999).

[2] = test system: liver metastasis of human colon cancer cell strain HT29 transplanted in the spleen; test: Nude mouse models with liver metastasis from human colon cancer; assay type: in vivo, nude mice; settings: HT29 cells cultured 1 hour with 10 μM polyamide, splenic transplantation, 6 weeks
Method: 5-week-old male nude mice (BALB/c Nude Mice CBy.Cg-Foxn1nu/J) (Jackson Laboratory) were purchased, maintained in a pathogen-free environment until 6 week olds, and used in the experiment. A human colon cancer cell strain HT29 was monolayer-cultured in a 100-cm^2 cell culture flask and treated with 0.05% trypsin and 0.02% EDTA solutions before reaching confluence. The cells were collected, centrifuged at 800 rpm for 3 minutes, then washed with PBS containing neither Ca^2+ nor Mg^2+, and cultured for 1 hour in a culture solution adjusted to a polyamide concentration of 10 μM or a polyamide-free culture solution. Then, a cell suspension having a concentration of 3×10^6 cells in 100 μl again was prepared using PBS. The thus-prepared 3 groups of the cells containing HMMP9NFκβ polyamide, containing mismatch polyamide and in polyamide-free PBS were separately administered to the nude mice (6 individuals/group). Longitudinal incision was made in the skin on the left side of the abdominal regions of the nude mice under anesthesia. After peritoneotomy to the spleen, 100 μl of the colon cancer cell suspension was transplanted to the splenic subcapsular region using a 29-G injection needle (FIG. 29A). The reliable splenic subcapsular transfer of the cell grafts was confirmed based on change in the color tone of the cell-transplanted site through the splenic capsule and the absence of bleeding or leakage of the suspension. After the transplantation, the mice were raised for 6 weeks and subjected to autopsy. The livers and the spleens were extracted, fixed in a 10% buffered formalin solution, then histologically stained with hematoxylin eosin, and subjected to microscopic observation. […] The liver metastatic foci are circled in the preparations.

## CC(=O)Nc1cc(C(=O)Nc2cc(C(=O)NCCC(=O)Nc3cc(C(=O)Nc4cc(C(=O)NCCCC(=O)Nc5cn(C)c(C(=O)Nc6cn(C)c(C(=O)NCCC(=O)Nc7cc(C(=O)Nc8cc(C(=O)NCCC(=O)NCCCN(C)C)n(C)c8)n(C)c7)n6)n5)n(C)c4)n(C)c3)n(C)c2)n(C)c1 [HMMP9NFκβ]
[1]
  NF-κβ p65-NF-κβ binding region complex of the MMP-9 promoter in immunoprecipitation with anti-NF-κβ p65 antibodies: not detected
[2]
  area of liver metastatic foci: small
  number of liver metastatic foci: distinctly small
  size of liver metastatic foci: distinctly small
